Laboratory results taken from patent US9758485B2, “Compounds for controlling arthropods” (priority 2013, dated 2017).
Read-outs that look alike come from different tables or passages of the source.

How the values were obtained:
Boophilus microplus = Boophilus microplus - injection test; type: in vivo; details: application rate 20 μg/animal; injected into engorged adult female ticks; laying of fertile eggs, after 7 days
Description: Boophilus microplus—Injection Test
(§1) Solvent: dimethyl sulphoxide
To produce an appropriate active ingredient formulation, 10 mg of active ingredient are mixed with 0.5 ml of solvent and the concentrate is diluted with solvent to the desired concentration.
1 μl of the active ingredient solution is injected into the abdomen of 5 engorged adult female cattle ticks (Boophilus microplus). The animals are transferred into dishes and kept in a climate-controlled room.
Efficacy is assessed after 7 days by laying of fertile eggs. Eggs which are not visibly fertile are stored in a climate-controlled cabinet until the larvae hatch after about 42 days. An efficacy of 100% means that none of the ticks has laid any fertile eggs; 0% means that all the eggs are fertile.

[1] = logP determination by HPLC on a reversed-phase column (C18), EEC Directive 79/831 Annex V.A8; type: physicochemical; details: for logP^a): HPLC-MS method a), Table I-T3
Lucilia cuprina = Lucilia cuprina test; type: in vivo; details: application rate 100 ppm, L1 larvae in minced horsemeat, kill after 2 days
Description: as §1
To produce an appropriate active ingredient formulation, 10 mg of active ingredient are mixed with 0.5 ml of dimethyl sulphoxide, and the concentrate is diluted with water to the desired concentration.
About 20 L1 larvae of the Australian sheep blowfly (Lucilia cuprina) are transferred into a test vessel containing minced horsemeat and the active ingredient preparation of the desired concentration.
After 2 days, the kill in % is determined. 100% means that all the larvae have been killed; 0% means that none of the larvae have been killed.

Ctenocephalides felis = Ctenocephalides felis - oral test; type: in vivo; details: application rate 100 ppm in citrated cattle blood; adult fleas; kill after 2 days
Description: Ctenocephalides felis—Oral Test
as §1
For the purpose of producing an appropriate active ingredient formulation, 10 mg of active ingredient are mixed with 0.5 ml of dimethyl sulphoxide. Dilution with citrated cattle blood gives the desired concentration.
About 20 unfed adult cat fleas (Ctenocephalides felis) are placed into a chamber which is closed at the top and bottom with gauze. A metal cylinder whose bottom end is closed with parafilm is placed onto the chamber. The cylinder contains the blood/active ingredient preparation, which can be imbibed by the fleas through the parafilm membrane.
After 2 days, the kill in % is determined. 100% means that all of the fleas have been killed; 0% means that none of the fleas have been killed.

[2] = HPLC-MS, reversed-phase column (C18)
[3] = HPLC on reversed-phase column (C18)
[4] = HPLC, reversed-phase C18, acetonitrile/water with formic acid, 55° C.

Cc1cc(C(F)(C(F)(F)F)C(F)(F)F)cc(C)c1-c1ccn(-c2ccc(Cl)c(C(=O)NC3(C#N)CC3)c2)n1 [I-T2-2]
efficacy (Boophilus microplus): 100%

Cc1cc(C(F)(C(F)(F)F)C(F)(F)F)cc(C)c1-n1cc(-c2ccc(Cl)c(C(=O)NCC(=O)NCC(F)(F)F)c2)cn1 [I-T3-6]
logP^a) [1]: 4.1
efficacy (Boophilus microplus): 100%
efficacy (Lucilia cuprina): 100%

Cc1cc(C(F)(C(F)(F)F)C(F)(F)F)cc(C)c1-n1cc(-c2cccc(C(=O)NC3(C#N)CC3)c2F)cn1 [I-T3-10]
logP^a) [1]: 4.2
efficacy (Boophilus microplus): 100%
efficacy (Ctenocephalides felis): 100%
efficacy (Lucilia cuprina): 100%

Cc1cc(C(F)(C(F)(F)F)C(F)(F)F)cc(C)c1-n1cc(-c2cc(C(=O)NC3CC3)c(F)cc2Cl)cn1 [I-T3-11]
logP^a) [1]: 4.9
efficacy (Boophilus microplus): 100%
efficacy (Ctenocephalides felis): 95%

Cc1cc(C(F)(C(F)(F)F)C(F)(F)F)cc(C)c1-n1cc(-c2cc(C(=O)NC3(C#N)CC3)c(F)cc2Cl)cn1 [I-T3-12]
logP^a) [1]: 4.7
efficacy (Boophilus microplus): 100%
efficacy (Ctenocephalides felis): 100%
efficacy (Lucilia cuprina): 80%

Cc1cc(C(F)(C(F)(F)F)C(F)(F)F)cc(C)c1-n1cc(-c2cc(C(=O)NC3CC3)ccc2F)cn1 [I-T3-13]
logP^a) [1]: 4.5
efficacy (Boophilus microplus): 100%
efficacy (Ctenocephalides felis): 80%

Cc1cc(C(F)(C(F)(F)F)C(F)(F)F)cc(C)c1-n1cc(-c2cc(C(=O)NC3CC3)cc(C(F)(F)F)c2)cn1 [I-T3-15]
logP^a) [1]: 4.9
efficacy (Boophilus microplus): 100%
efficacy (Ctenocephalides felis): 90%
efficacy (Lucilia cuprina): 100%

Cc1ccc(C(=O)NC2CC2)cc1-c1cnn(-c2c(C)cc(C(F)(C(F)(F)F)C(F)(F)F)cc2C)c1 [I-T3-16]
logP^a) [1]: 4.4
efficacy (Ctenocephalides felis): 80%

Cc1cc(C(F)(C(F)(F)F)C(F)(F)F)cc(C)c1-n1cc(-c2cc(C(=O)NC3(C#N)CC3)cc(C(F)(F)F)c2)cn1 [I-T3-18]
logP^a) [1]: 4.7
efficacy (Boophilus microplus): 100%
efficacy (Ctenocephalides felis): 100%
efficacy (Lucilia cuprina): 100%

Cc1cc(C(F)(C(F)(F)F)C(F)(F)F)cc(C)c1-n1cc(-c2cc(C(=O)NC3(C#N)CC3)ccc2F)cn1 [I-T3-19]
logP^a) [1]: 4.3
efficacy (Boophilus microplus): 100%
efficacy (Ctenocephalides felis): 95%

O=C(NCC(F)(F)F)c1cc(-c2cnn(-c3ccc(C(F)(C(F)(F)F)C(F)(F)F)cc3Cl)c2)ccc1Cl [I-T3-32]
logP^a) [1]: 4.7
efficacy (Boophilus microplus): 100%
efficacy (Ctenocephalides felis): 100%
efficacy (Lucilia cuprina): 100%

O=C(NCCC(F)(F)F)c1cc(-c2cnn(-c3ccc(C(F)(C(F)(F)F)C(F)(F)F)cc3Cl)c2)ccc1Cl [I-T3-33]
logP^a) [1]: 4.7
efficacy (Boophilus microplus): 100%
efficacy (Ctenocephalides felis): 100%
efficacy (Lucilia cuprina): 100%

O=C(NCC(F)(F)F)c1cc(-c2cnn(-c3ccc(C(F)(C(F)(F)F)C(F)(F)F)cc3OC(F)(F)F)c2)ccc1Cl [I-T3-36]
logP^a) [1]: 5.0
efficacy (Boophilus microplus): 100%
efficacy (Ctenocephalides felis): 80%
efficacy (Lucilia cuprina): 100%

O=C(NC1CSC1)c1cc(-c2cnn(-c3ccc(C(F)(C(F)(F)F)C(F)(F)F)cc3OC(F)(F)F)c2)ccc1Cl [I-T3-37]
logP^a) [1]: 4.9
efficacy (Boophilus microplus): 100%
efficacy (Ctenocephalides felis): 90%
efficacy (Lucilia cuprina): 100%

CCc1cc(C(F)(C(F)(F)F)C(F)(F)F)ccc1-n1cc(-c2ccc(Cl)c(C(=O)NCC(F)(F)F)c2)cn1 [I-T3-40]
logP^a) [1]: 4.9
efficacy (Boophilus microplus): 100%
efficacy (Ctenocephalides felis): 100%
efficacy (Lucilia cuprina): 100%

CCc1cc(C(F)(C(F)(F)F)C(F)(F)F)ccc1-n1cc(-c2ccc(Cl)c(C(=O)NC3CSC3)c2)cn1 [I-T3-41]
logP^a) [1]: 4.9
efficacy (Boophilus microplus): 100%
efficacy (Ctenocephalides felis): 95%
efficacy (Lucilia cuprina): 90%

CCc1cc(C(F)(C(F)(F)F)C(F)(F)F)cc(C)c1-n1cc(-c2ccc(Cl)c(C(=O)NCC(F)(F)F)c2)cn1 [I-T3-45]
logP^a) [1]: 5.0
efficacy (Boophilus microplus): 100%
efficacy (Ctenocephalides felis): 95%
efficacy (Lucilia cuprina): 100%

CCc1cc(C(F)(C(F)(F)F)C(F)(F)F)ccc1-n1cc(-c2cccc(C(=O)NC3(C#N)CC3)c2F)cn1 [I-T3-74]
logP^a) [1]: 4.5
efficacy (Boophilus microplus): 100%
efficacy (Lucilia cuprina): 90%

CCc1cc(C(F)(C(F)(F)F)C(F)(F)F)ccc1-n1cc(-c2cccc(C(=O)NC3CC3)c2F)cn1 [I-T3-75]
logP^a) [1]: 4.7
efficacy (Boophilus microplus): 90%
efficacy (Lucilia cuprina): 80%

Cc1cc(C(F)(C(F)(F)F)C(F)(F)F)cc(C)c1-n1cc(-c2ncc(Cl)c(C(=O)NC3CC3)n2)cn1 [I-T3-121, 5-chloro-N-cyclopropyl-2-[1-[2,6-dimethyl-4-[1,2,2,2-tetrafluoro-1-(trifluoromethyl)ethyl]phenyl]pyrazol-4-yl]pyrimidine-4-carboxamide]
chromatographic logP ([1]; reversed-phase HPLC column (C18), HPLC, reversed-phase C18, acetonitrile/water with formic acid, 55° C., read-out: logP): 4.5
chromatographic logP ([1]; reversed-phase HPLC column (C18), HPLC-MS method a), reversed-phase column (C18); read-out: logP^a)): 4.5
chromatographic logP ([1]; reversed-phase HPLC column (C18), HPLC-MS, reversed-phase column (C18), read-out: log P): 4.5
pest or weed control at 100 ppm (Lucilia cuprina; Lucilia cuprina, 48 h, read-out: efficacy): 80%

O=C(NC1CC1)c1cc(-c2cnn(-c3c(Cl)cc(C(F)(C(F)(F)F)C(F)(F)F)cc3Cl)c2)cnc1N1CCCC1 [I-T3-135]
log P [1, 2]: 4.3
efficacy (Ctenocephalides felis): 100%

Cc1cc(C(F)(C(F)(F)F)C(F)(F)F)cc(C)c1-n1cc(-c2cnc(C3CC3)c(C(=O)N(C)C3CC3)c2)cn1 [I-T3-142]
log P [1, 2]: 4.6
efficacy (Boophilus microplus): 100%

O=C(NC1CC1)c1cc(-c2cnn(-c3c(Cl)cc(C(O)(C(F)(F)F)C(F)(F)F)cc3Cl)c2)cnc1Cl [I-T3-221]
log P [1, 3]: 3.0

N#CC1(NC(=O)c2cc(-c3cnn(-c4c(Cl)cc(C(O)(C(F)(F)F)C(F)(F)F)cc4Cl)c3)cnc2Cl)CC1 [I-T3-222]
log P [1, 3]: 3.0

CN(C(=O)c1cc(-c2cnn(-c3c(Cl)cc(C(O)(C(F)(F)F)C(F)(F)F)cc3Cl)c2)cnc1Cl)C1(C#N)CC1 [I-T3-223]
log P [1, 3]: 3.3

O=C(NC1CC1)c1cc(-c2cnn(-c3c(I)cc(C(F)(C(F)(F)F)C(F)(F)F)cc3OC(F)(F)F)c2)ccc1Cl [I-T3-224]
log P [1, 3]: 4.7

CN(C(=O)c1cc(-c2cnn(-c3c(I)cc(C(F)(C(F)(F)F)C(F)(F)F)cc3OC(F)(F)F)c2)ccc1Cl)C1CC1 [I-T3-225]
log P [1, 3]: 5.2

N#CC1(NC(=O)c2cc(-c3cnn(-c4c(I)cc(C(F)(C(F)(F)F)C(F)(F)F)cc4OC(F)(F)F)c3)ccc2Cl)CC1 [I-T3-226]
log P [1, 3]: 4.6

O=C(NC1CC1)c1cc(-c2cnn(-c3c(I)cc(C(F)(C(F)(F)F)C(F)(F)F)cc3C(F)(F)F)c2)ccc1Cl [I-T3-227]
log P [1, 3]: 4.5

N#CC1(NC(=O)c2cc(-c3cnn(-c4c(I)cc(C(F)(C(F)(F)F)C(F)(F)F)cc4C(F)(F)F)c3)ccc2Cl)CC1 [I-T3-228]
log P [1, 3]: 4.4

CN(C(=O)c1cc(-c2cnn(-c3c(I)cc(C(F)(C(F)(F)F)C(F)(F)F)cc3C(F)(F)F)c2)ccc1Cl)C1CC1 [I-T3-229]
log P [1, 3]: 5.1

Cc1cc(C(F)(C(F)(F)F)C(F)(F)F)cc(C)c1-n1ccc(-c2ccc(Cl)c(C(=O)NC3(C#N)CC3)c2)c1 [I-T46-1]
logP [1, 4]: 4.90

CN(C(=O)c1cc(-c2ccn(-c3c(Cl)cc(C(F)(C(F)(F)F)C(F)(F)F)cc3Cl)c2)cnc1Cl)C1CC1 [I-T46-3]
logP [1, 4]: 5.0

O=C(NC1CC1)c1cc(-c2ccn(-c3c(Cl)cc(C(F)(C(F)(F)F)C(F)(F)F)cc3Cl)c2)cnc1Cl [I-T46-4]
logP [1, 4]: 4.5

N#CC1(NC(=O)c2cc(-c3ccn(-c4c(Cl)cc(C(F)(C(F)(F)F)C(F)(F)F)cc4Cl)c3)cnc2Cl)CC1 [I-T46-5]
logP [1, 4]: 4.4

CN(C(=O)c1cc(-c2ccn(-c3c(Cl)cc(C(F)(C(F)(F)F)C(F)(F)F)cc3Cl)c2)cnc1Cl)C1(C#N)CC1 [I-T46-6]
logP [1, 4]: 4.8
